Experimental data published in patent US7402606B2, “Derivatives of 1-(oxoaminoacetyl) pentylcarbamate as cathepsin K inhibitors for the treatment of bone loss” (SmithKline Beecham Corporation, priority 2002, dated 2008).

Target: T1, human cathepsin K (Homo sapiens, UniProt P43235)
T1 construct: The proform of cathepsin K was converted to mature cathepsin K by brief exposure to pH 4; made in house; host or cells: baculovirus; Trichoplusia ni High Five cells (virus raised in Sf-9)
T1 sequence (P43235 115-329): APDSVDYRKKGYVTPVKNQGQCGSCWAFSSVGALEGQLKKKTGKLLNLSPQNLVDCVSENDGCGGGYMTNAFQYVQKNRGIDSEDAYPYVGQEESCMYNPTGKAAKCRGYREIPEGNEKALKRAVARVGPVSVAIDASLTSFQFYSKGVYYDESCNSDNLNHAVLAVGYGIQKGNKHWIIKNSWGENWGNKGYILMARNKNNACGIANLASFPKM
Assay: Cathepsin K inhibition assay, human recombinant enzyme, fluorogenic substrate Cbz-Phe-Arg-AMC
Type: biochemical
Conditions: Table 1, human cathepsin K; read-out: h Cat K IC50
Experimental: All assays for cathepsin K were carried out with human and rat recombinant enzyme. Assays for cathepsins S ? V were also carried out with human recombinant enzyme. Assays for human cathepsins B, H, and L were carried out with enzyme, purchased from Athens Research and Technology, Inc., prepared from human liver tissue. […] A stock substrate solution of Cbz-Phe-Arg-AMC was prepared at a concentration of 50 mM in dimethyl sulfoxide. This substrate was diluted into the assay for a final substrate concentration of 10 μM in the rat cathepsin K, human cathepsin K, and human cathepsin B assays; a final substrate concentration of 5 μM in the human cathepsin L assay; and a final substrate concentration of 2 μM in the human cathepsin V assay.
All assays contained 10% dimethyl sulfoxide. […] All assays were conducted at 30° C. Product fluorescence (excitation at 360 nm; emission at 440 nm, (except cathepsin H which used excitation at 340 nm; emission at 420 nm)) was monitored with a PerSeptive Biosystems Cytofluor II fluorescence plate reader. Product progress curves were generated over 2.3 h monitoring the formation of 7-amino-4-methylcoumarin product (or β-naphthalamide for cathepsin H).
Human and rat Cathepsin K:
Two liters of Spodoptera frugiperda (Sf-9) cells (ATCC) were grown in Grace's Supplemented medium (Life Technologies) supplemented with 2 g/L glucose, 10% fetal bovine serum (HyClone) and 0.1% pluronic F-68 (Life Technologies). […] The cells continued to grow for 72 h post-infection, before the virus was harvested by centrifugation at 1400×g for 30 min.
One and one-half liters of Trichoplusia ni (T. ni) High Five (™) cells [JRH Biosciences, Woodland, Calif. […] The cells were grown for 24 h at 28° C., 50 RPM, and 50% dissolved oxygen. […] Media were separated from cells at a rate of 1 L/min using the Centritech 100 ™ continuous-flow centrifuge (DuPont) operating at 200×g.
Protein Purification: Media (human and rat) were filtered through a Whatman 3 filter, and then loaded onto a 25 mL. Poros HS II (26 mm×47 mm) cation exchange column equilibrated in 25 mM sodium acetate at pH 5.5 (equilibration buffer). The column was washed until the absorbance reached the baseline value, and then the protein was eluted with a linear gradient from 0-2 M sodium chloride in the equilibration buffer. Column fractions were analyzed by SDS-PAGE, N-terminal sequencing, and mass spectrometry. Fractions containing the proform of cathepsin K were pooled and frozen at −80° C. The proform was concentrated in an Amicon Centriprep 10 and fractionated with a Superdex 75 column (26 mm×600 mm, Pharmacia) equilibrated in 400 mM sodium chloride, 25 mM sodium acetate at pH 5.5.
Cathepsin K Activation: The proform of cathepsin K was converted to mature cathepsin K by brief exposure to pH 4 in the presence of 5 mM L-cysteine. Typically, 5 mM L-cysteine was added to 10 mL of approximately 1 mg/mL procathepsin K. One mL of this solution was diluted ten-fold into 450 mM sodium acetate at pH 4.0 containing 5 mM L-cysteine. This solution was reacted at 23° C. for 2 min before neutralization with 2 mL, 1.8 M sodium acetate at pH 6.0. The neutralized sample was added to the remaining 9 mL of procathepsin K. The mixture was incubated at 4° C. for 2-3 days. The activated cathepsin K was chromatographed on a Poros HS II column as described above.
Potential inhibitors were evaluated using the progress curve method. Assays were carried out in the presence of variable concentrations of test compound. Reactions were initiated by addition of buffered solutions of inhibitor and substrate to enzyme. Data analysis was conducted according to one of two procedures depending on the appearance of the progress curves in the presence of inhibitors. […] Ki values were calculated from IC50 values using equation 2 assuming a competitive model.

Structure (SMILES)	IC50
CCCC[C@H](NC(=O)O[C@@H]1CN(C(=O)Cc2cccc(Oc3ccccc3)c2)CC1(C)C)C(=O)C(=O)N[C@H](C)c1ccccc1 [Example 23, (3S)-4,4-Dimethyl-1-[(3-phenoxyphenyl)acetyl]pyrrolidinyl (1S)-1-(oxo{[(1R)-1-phenylethyl]amino}acetyl)pentylcarbamate]	10 to 100 nM
CCCC[C@H](NC(=O)O[C@@H]1CN(C(=O)c2csc(-c3ccncc3)n2)CC1(C)C)C(=O)C(=O)N[C@H](C)c1ccccc1 [Example 26, (3S)-4,4-Dimethyl-1-{[2-(4-pyridinyl)-1,3-thiazol-4-yl]carbonyl}pyrrolidinyl (1S)-1-(oxo{[(1R)-1-phenylethyl]amino}acetyl)pentylcarbamate]	10 to 100 nM
CCCC[C@H](NC(=O)O[C@@H]1C(=O)OCC1(C)C)C(=O)C(=O)N[C@H](C)c1ccccc1 [Example 1, (3S)-4,4-dimethyl-2-oxotetrahydro-3-furanyl (1S)-1-(oxo([(1R)-1-phenylethyl]amino}acetyl)pentylcarbamate]	1 to 10 nM
CCCC[C@H](NC(=O)O[C@@H]1CN(C(=O)c2c(-c3ccccc3)noc2C)CC1(C)C)C(=O)C(=O)N[C@H](C)c1ccccc1 [Example 27, (3S)-4,4-Dimethyl-1-[(5-methyl-3-phenyl-4-isoxazolyl)carbonyl]pyrrolidinyl (1S)-1-(oxo{[(1R)-1-phenylethyl]amino}acetyl)pentylcarbamate]	10 to 100 nM
CCCC[C@H](NC(=O)O[C@@H]1CN(C(=O)Oc2cccc(Oc3ccccc3)c2)CC1(C)C)C(=O)C(=O)N[C@H](C)c1ccccc1 [Example 59, 3-Phenoxyphenyl (4S)-3,3-dimethyl-4-[({[(1S)-1-(oxo{[(1R)-1-phenylethyl]amino}acetyl)pentyl]amino}carbonyl)oxy]-1-pyrrolidinecarboxylate]	10 to 100 nM
CCCC[C@H](NC(=O)O[C@@H]1CN(C(=O)Oc2ccc(Oc3ccccc3)cc2)CC1(C)C)C(=O)C(=O)N[C@H](C)c1ccccc1 [Example 58, 4-Phenoxyphenyl (4S)-3,3-dimethyl-4-[({[(1S)-1-(oxo{[(1R)-1-phenylethyl]amino}acetyl)pentyl]amino}carbonyl)oxy]-1-pyrrolidinecarboxylate]	10 to 100 nM
CCCC[C@H](NC(=O)O[C@@H]1CN(C(=O)c2ccc3ccccc3c2)CC1(C)C)C(=O)C(=O)N[C@H](C)c1ccccc1 [Example 18, (3S)-4,4-Dimethyl-1-(2-naphthoyl)pyrrolidinyl (1S)-1-(oxo {[(1R)-1-phenylethyl]amino}acetyl)pentylcarbamate]	1 to 10 nM
CCCC[C@H](NC(=O)OC1CN(C(=O)Oc2ccccc2)CC1(C)C)C(=O)C(=O)N[C@H](C)c1ccccc1 (stereo partly drawn) [Example 62, Phenyl 3,3-dimethyl-4-[({[(1S)-1-(oxo{[(1R)-1-phenylethyl]amino}acetyl)pentyl]amino}carbonyl)oxy]-1-pyrrolidinecarboxylate]	10 to 100 nM
CCCC[C@H](NC(=O)O[C@@H]1CN(C(=O)c2cc(C)on2)CC1(C)C)C(=O)C(=O)N[C@H](C)c1ccccc1 [Example 19, (3S)-4,4-Dimethyl-1-[(5-methyl-3-isoxazolyl)carbonyl]pyrrolidinyl (1S)-1-(oxo {[(1R)-1-phenylethyl]amino}acetyl)pentylcarbamate]	10 to 100 nM

The next lines start with the values.

IC50	Structure (SMILES)
10 to 100 nM	CCCC[C@H](NC(=O)O[C@@H]1CN(C(=O)c2csc(-c3snnc3C)n2)CC1(C)C)C(=O)C(=O)N[C@H](C)c1ccccc1 [Example 37, (3S)-4,4-Dimethyl-1-{[2-(4-methyl-1,2,3-thiadiazol-5-yl)-1,3-thiazol-4-yl]carbonyl}pyrrolidinyl (1S)-1-(oxo{[(1R)-1-phenylethyl]amino}acetyl)pentylcarbamate]
1 to 10 nM	CCCC[C@H](NC(=O)O[C@@H]1CN(C(=O)c2n[nH]c3ccccc23)CC1(C)C)C(=O)C(=O)N[C@H](C)c1ccccc1 [Example 36, (3S)-1-(1H-Indazol-3-ylcarbonyl)-4,4-dimethylpyrrolidinyl (1S)-1-(oxo {[(1R)-1-phenylethyl]amino}acetyl)pentylcarbamate]
10 to 100 nM	CCCC[C@H](NC(=O)O[C@@H]1CN(C(=O)OCCN2CCCC2=O)CC1(C)C)C(=O)C(=O)N[C@H](C)c1ccccc1 [Example 47, 2-(2-Oxo-1-pyrrolidinyl)ethyl (4S)-3,3-dimethyl-4-[({[(1S)-1-(oxo{[(1R)-1-phenylethyl]amino}acetyl)pentyl]amino}carbonyl)oxy]-1-pyrrolidinecarboxylate]
10 to 100 nM	CCCC[C@H](NC(=O)O[C@@H]1CN(C(=O)c2nc[nH]n2)CC1(C)C)C(=O)C(=O)N[C@H](C)c1ccccc1 [Example 34, (3S)-4,4-Dimethyl-1-(1H-1,2,4-triazol-3-ylcarbonyl)pyrrolidinyl (1S)-1-(oxo{[(1R)-1-phenylethyl]amino}acetyl)pentylcarbamate]
10 to 100 nM	CCCC[C@H](NC(=O)O[C@@H]1CN(C(=O)Nc2c(C)noc2C)CC1(C)C)C(=O)C(=O)N[C@H](C)c1ccccc1 [Example 67, (3S)-1-{[(3,5-Dimethyl-4-isoxazolyl)amino]carbonyl}-4,4-dimethylpyrrolidinyl (1S)-1-(oxo{[(1R)-1-phenylethyl]amino}acetyl)pentylcarbamate]
1 to 10 nM	CCCC[C@H](NC(=O)O[C@@H]1CN(C(=O)OCC2CCCO2)CC1(C)C)C(=O)C(=O)N[C@H](C)c1ccccc1 (stereo partly drawn) [Example 41, Tetrahydro-2-furanylmethyl (4S)-3,3-dimethyl-4-[({[(1S)-1-(oxo{[(1R)-1-phenylethyl]amino}acetyl)pentyl]amino}carbonyl)oxy]-1-pyrrolidinecarboxylate]
100 to 1000 nM	CCCC[C@H](NC(=O)O[C@@H]1CN(C(=O)NS(=O)(=O)c2ccc(C)cc2)CC1(C)C)C(=O)C(=O)N[C@H](C)c1ccccc1 [Example 76, (3S)-4,4-Dimethyl-1-({[(4-methylphenyl)sulfonyl]amino}carbonyl)pyrrolidinyl (1S)-1-(oxo{[(1R)-1-phenylethyl]amino}acetyl)pentylcarbamate]
10 to 100 nM	CCCC[C@H](NC(=O)O[C@@H]1CN(C(=O)Cc2ccccc2Oc2ccccc2)CC1(C)C)C(=O)C(=O)N[C@H](C)c1ccccc1 [Example 31, (3S)-4,4-Dimethyl-1-[(2-phenoxyphenyl)acetyl]pyrrolidinyl (1S)-1-(oxo{[(1R)-1-phenylethyl]amino}acetyl)pentylcarbamate]
1 to 10 nM	CCCC[C@H](NC(=O)O[C@@H]1CN(C(=O)Nc2cc(F)ccc2C)CC1(C)C)C(=O)C(=O)N[C@H](C)c1ccccc1 [Example 72, (3S)-1-[(5-Fluoro-2-methylanilino)carbonyl]-4,4-dimethylpyrrolidinyl (1S)-1-(oxo{[(1R)-1-phenylethyl]amino}acetyl)pentylcarbamate]
1 to 10 nM	CCCC[C@H](NC(=O)O[C@@H]1CN(C(=O)NCc2ccccc2)CC1(C)C)C(=O)C(=O)N[C@H](C)c1ccccc1 [Example 64]
10 to 100 nM	CCCC[C@H](NC(=O)O[C@@H]1CN(C(=O)Cc2ccc(F)cc2)CC1(C)C)C(=O)C(=O)N[C@H](C)c1ccccc1 [Example 39, (3S)-1-[(4-Fluorophenyl)acetyl]-4,4-dimethylpyrrolidinyl (1S)-1-(oxo{[(1R)-1-phenylethyl]amino}acetyl)pentylcarbamate]
